Data: PMC11273431, “Isolation, Characterization, and Functional Properties of Antioxidant Peptides from Mulberry Leaf Enzymatic Hydrolysates” (Antioxidants, 2024)

Assays:
Type in all cases: cell-based
SOD = SOD activity in HepG2 cells; conditions: 5–10 μg/mL pretreatment 6 h, then H2O2 160 μM 24 h; p < 0.01
Procedure: (§1) First, HepG2 cells (1 × 10^5 cells/mL) in a volume of 2 mL were seeded in a 6-well culture plate and incubated at 37 °C for 24 h. Experimental grouping and treatments were the same as in Section 2.9. Next, cells were collected, and cell lysis was performed using RIPA cell lysis solution. The protein concentration in cell lysates was determined by the BCA protein assay kit. SOD (Item No. A001-3-2) and CAT (Item No. A007-1-1) activity assays were carried out according to the instructions provided with the corresponding assay kits.

HepG2 cells [1] = experiment: JC-1 staining, mitochondrial membrane potential; conditions: 5–10 μg/mL pretreatment 6 h, then H2O2 160 μM 24 h; for JC-1 green fluorescence: fluorescence microscopy; for JC-1 red/green fluorescence ratio: microplate reader, versus H2O2 damage group
Procedure: (§2) HepG2 cells were treated as in Section 2.10. Hoechst 33258 (Item No. C0021) and JC-1 (Item No. M8650) staining was performed according to the instructions provided in the staining kit.
After JC-1 staining, the samples were examined under a fluorescence microscope. […] The red/green fluorescence ratio can be considered a direct indicator of the state of mitochondrial polarization.

CAT = CAT activity in HepG2 cells; conditions: 5–10 μg/mL pretreatment 6 h, then H2O2 160 μM 24 h; p < 0.01
Procedure: as §1

ROS in HepG2 cells = experiment: ROS levels, DCFH-DA fluorescence; conditions: 5–10 μg/mL pretreatment 6 h, then H2O2 160 μM 24 h; p < 0.01
Procedure: HepG2 cells were treated as in Section 2.10. After that, the supernatant was discarded, and cells were gently washed twice with PBS. Subsequently, the cells were incubated with DMEM containing 10 μM DCFH2-DA at 37 °C for 20 min. After the incubation, the cells were carefully washed twice with PBS, and then 1 mL of DMEM was added, after which the cells were observed under a fluorescence microscope.
The contents of ROS were indicated by DCF fluorescence and quantified using excitation and emission filters of 488 and 525 nm, respectively. The ROS levels were expressed as a percentage of the blank control values.

HepG2 cells [2] = experiment: Hoechst 33258 staining, chromatin damage; conditions: 5–10 μg/mL pretreatment 6 h, then H2O2 160 μM 24 h; fluorescence microscopy
Procedure: as §2
Hoechst 33258 staining was directly observed using a fluorescence microscope.

HepG2 cells [3] = experiment: Apoptosis, Annexin V-FITC/PI flow cytometry; conditions: 5–10 μg/mL pretreatment 6 h, then H2O2 160 μM 24 h
Procedure: HepG2 cells were treated as in Section 2.10. After that, cells were collected, rinsed twice with PBS, and then resuspended in Apoptosis Detection Staining solution (containing 2 μL of Annexin V-FITC dye, 5 μL of PI dye, and 100 μL of Binding buffer).
After 15 min of dark incubation at room temperature, cells were analyzed for their apoptotic status (Ex = 488 nm, FL1 EM = 515 nm, FL2 EM = 560 nm) using the BD Fortessa flow cytometer (Becton Dickinson, Franklin Lakes, NJ, USA), and the data were analyzed with Flowjo software 10.0.

HepG2 cells [4] = experiment: Protective effect against H2O2-induced oxidative damage, CCK-8; conditions: peptide 100 μg/mL pretreatment 6 h, then H2O2 160 μM 24 h
Procedure: We first established a H2O2-induced oxidative damage model in HepG2 cells. HepG2 cells (1 × 10^5 cells/mL) in a volume of 100 μL were seeded in a 96-well culture plate and incubated at 37 °C for 24 h. The control group and damage group received 100 μL of DMEM, the positive control group received 100 μL of 100 μg/mL Trolox, and the experimental group received 100 μL of DMEM containing different concentrations of peptides.
After culturing for another 6 h, the experimental and damage groups were exposed to H2O2 (160 μM) for 24 h, while the control group received an equal volume of DMEM. Finally, cell viability was measured following the procedures in Section 2.8.

HepG2 cells [5] = experiment: Cell viability, CCK-8; conditions: 160 μM H2O2, 24 h
Procedure: HepG2 cells were cultured in a complete medium (90% DMEM + 10% FBS + 100 units/mL penicillin and 100 μg/mL streptomycin) at 37 °C, 5% CO2, and 90% relative humidity. The Cell Counting Kit-8 (CCK-8) Assay Kit was used to detect the effect of H2O2 and peptides on cell viability. HepG2 cells (1 × 10^5 cells/mL) were pre-seeded in a 96-well culture plate overnight and then treated with H2O2 and peptides at 37 °C for 24 h. Cell viability was assessed with the CCK-8 kit (Item No. BS350C) according to the protocol supplied by the manufacturer.

With EGDAGAQGPPGPAGPAGER [Peptide P6] the SOD activity (SOD) was “significant increase”, the JC-1 green fluorescence (HepG2 cells [1]) was “reduced green fluorescence” and the “JC-1 red/green fluorescence ratio” value (HepG2 cells [1]) was “effectively alleviated”. For the same compound, the CAT activity (CAT) was “significant increase”, the “Cellular DCF fluorescence intensity (ROS)” value (ROS in HepG2 cells) was “significantly reduced” and the “Hoechst 33258 nuclear fluorescence (chromatin damage)” value (HepG2 cells [2]) was “reduced blue fluorescence and fewer bright spots”. For the same compound, the Apoptosis rate (HepG2 cells [3]) was “significantly reduced the apoptosis rate” and the “Mitigating effect on H2O2-induced oxidative damage (cell survival rate)” value (HepG2 cells [4]) was “significantly better than those of the other peptides”.
In the case of RPGPSPGVGAPGK [Peptide P7], the SOD activity (SOD) is reported as “significant increase”, the JC-1 green fluorescence (HepG2 cells [1]) is reported as “reduced green fluorescence” and the “JC-1 red/green fluorescence ratio” value (HepG2 cells [1]) is reported as “effectively alleviated”. For the same compound, the CAT activity (CAT) was “significant increase”, the “Cellular DCF fluorescence intensity (ROS)” value (ROS in HepG2 cells) was “significantly reduced” and the “Hoechst 33258 nuclear fluorescence (chromatin damage)” value (HepG2 cells [2]) was “reduced blue fluorescence and fewer bright spots”. For the same compound, the Apoptosis rate (HepG2 cells [3]) was “significantly reduced the apoptosis rate” and the “Mitigating effect on H2O2-induced oxidative damage (cell survival rate)” value (HepG2 cells [4]) was “significantly better than those of the other peptides”.
In the case of OO [Peptide H2O2, hydrogen peroxide], the Cell survival rate (HepG2 cells [5]) is reported as roughly 50%.
